# Test results as given in publication PMC10515640, “Structure-Based Optimization of Covalent, Small-Molecule Stabilizers of the 14-3-3σ/ERα Protein–Protein Interaction from Nonselective Fragments” (Journal of the American Chemical Society, 2023).
# Legend:
# 14-3-3σ/ERα [1] = target: T1, 14-3-3σ/ERα (Homo sapiens, UniProt P03372+P31947); test: Mass spectrometry dose response, compound binding to 14-3-3σ in the presence of ERα phosphopeptide; conditions: 100 nM compound, 100 nM 14-3-3σ, ERα-peptide 2 µM
# T1 construct: The 14-3-3 σ isoform (full-length for mass spectrometry and fluorescence anisotropy assays, ΔC for crystallography); made in house; host or cells: E. coli Rosetta 2(DE3)pLysS, pPROEX HTb vector
# Procedure, shortened: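 Covalent labeling of Cys38 on 14-3-3σ was tracked by LC-MS on a Waters Acquity UPLC/Xevo G2-XS Q-Tof, with samples desalted on a Protein BEH-C4 column. Full-length wild type 14-3-3σ (100 nM) plus ERα phosphopeptide was mixed with compound in 10 mM TRIS, pH 8.0, at 50 μl per well. Percent bound was measured at several time points.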
# 14-3-3σ/C-RAF [2] = target: T2, 14-3-3σ/C-RAF (Homo sapiens, UniProt P31947); test: Mass spectrometry dose response, compound binding to 14-3-3σ in the presence of C-RAF phosphopeptide; conditions: 100 nM compound, 100 nM 14-3-3σ, C-RAF peptide 18 µM
# T2 construct: The 14-3-3 σ isoform (full-length for mass spectrometry and fluorescence anisotropy assays, ΔC for crystallography); made in house; host or cells: E. coli Rosetta 2(DE3)pLysS, pPROEX HTb vector
# T2 sequence (P31947 1-248): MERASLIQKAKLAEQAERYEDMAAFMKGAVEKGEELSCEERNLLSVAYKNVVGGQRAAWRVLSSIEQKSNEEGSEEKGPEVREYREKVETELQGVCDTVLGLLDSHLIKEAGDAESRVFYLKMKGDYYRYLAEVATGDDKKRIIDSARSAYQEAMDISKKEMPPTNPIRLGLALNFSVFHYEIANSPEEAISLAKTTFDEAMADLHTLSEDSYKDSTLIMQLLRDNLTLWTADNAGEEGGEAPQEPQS
# Procedure, shortened: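 Covalent binding of compounds to the native Cys38 of 14-3-3σ was monitored by LC-MS on a Waters Acquity UPLC/Xevo G2-XS Q-Tof, with samples desalted on a BEH-C4 column. Full-length wild type 14-3-3σ (100 nM) with C-RAF peptide in TRIS buffer (10 mM, pH 8.0) was incubated with compound dose series at room temperature.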
# 14-3-3σ/ERα [3] = target: T1, 14-3-3σ/ERα; test: Fluorescence anisotropy protein titration, FAM-labeled ERα peptide; type: binding; conditions: 10 nM FAM-ERα peptide; for X Fold stabilization (100 µM compound) of 14-3-3σ/ERα: versus DMSO reference; for Kd: 100 µM compound, overnight incubation
# Procedure: To evaluate compound-mediated stabilization of the 14-3-3σ/ERα complex directly, FA protein titrations were performed at a saturating concentration of compound. FA protein titrations allowed the quantification of the cooperative effect by comparing the apparent dissociation constants (appKD) of the binary and ternary complexes. 14-3-3σ was titrated into 10 nM FAM-labeled ERα peptide in the presence of DMSO or 100 μM of the compounds (Table S4). […]
# diluted in buffer (10 mM HEPES, pH 7.5, 150 mM NaCl, 0.1% Tween20, 1 mg/mL Bovine Serum Albumin (BSA; Sigma-Aldrich). Final DMSO in the assay was always 1%. […]
# Protein titrations were made by titrating 14-3-3σ in a 2-fold dilution series (starting at 300 µM) to a mix of fluorescein-labeled peptide (10 nM) and DMSO or compound (100 µM). Fluorescence anisotropy measurements were performed after overnight incubation at room temperature. […]
# Wells containing only FAM-peptide were used to set as G-factor at 35 mP. Data reported are at endpoint. EC50 and apparent Kd values were obtained from fitting the data with a four-parameter logistic model (4PL) in GraphPad Prism 7 for Windows. Data was obtained and averaged based on either three (compound titrations) or two (protein titrations) independent experiments.
# 14-3-3σ = target: T3, 14-3-3σ (Homo sapiens, UniProt P31947); test: Mass spectrometry dose response, compound binding to 14-3-3σ in the absence of peptide (apo); conditions: 100 nM compound, 100 nM 14-3-3σ
# T3 construct: The 14-3-3 σ isoform (full-length for mass spectrometry and fluorescence anisotropy assays, ΔC for crystallography); made in house; host or cells: E. coli Rosetta 2(DE3)pLysS, pPROEX HTb vector
# T3 sequence (P31947 1-248): T2 sequence (P31947 1-248)
# Procedure, shortened: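 Covalent binding of compounds to Cys38 of full-length wild type human 14-3-3σ (100 nM) was measured by LC-MS without peptide present. Compounds from 50 mM DMSO stocks were serially diluted 3-fold and 1000 nl transferred to plates in TRIS buffer (10 mM, pH 8.0), 50 μl per well. Samples were desalted on a BEH-C4 column and analysed on a Xevo G2-XS Q-Tof at several time points.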
# 14-3-3σ/C-RAF [4] = target: T2, 14-3-3σ/C-RAF; test: Fluorescence anisotropy compound titration, FAM-labeled C-RAF peptide; type: binding; conditions: 10 nM C-RAF-FAM labeled peptide, 5 µM 14-3-3σ, overnight incubation; read-out: EC50 value C-RAF (FA compound titration)
# Procedure, shortened: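 A fluorescence anisotropy compound titration measured how compounds stabilize binding of 14-3-3σ to a fluorescein-labeled C-RAF peptide. Compounds were diluted 2-fold, from 500 or 1000 µM, into 10 nM labeled peptide with 5 µM 14-3-3σ, roughly its EC25, in HEPES buffer with 1% DMSO. Plates were read after overnight incubation at room temperature. EC50 values came from 4PL fits over three independent experiments.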
# 14-3-3σ/ERα [5] = target: T1, 14-3-3σ/ERα; test: Fluorescence anisotropy compound titration, FAM-labeled ERα peptide; type: binding; conditions: 10 nM ERα-FAM labeled peptide, 1 µM 14-3-3σ, overnight incubation (24 h); read-out: EC50 value ERα (FA compound titration)
# Procedure, shortened: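 Fluorescence anisotropy compound titration measuring stabilization of the 14-3-3σ/ERα interaction: compounds were titrated in a 2-fold dilution series (starting at 500 or 1000 µM) into a mix of 10 nM fluorescein-labeled ERα peptide and 1 µM 14-3-3σ (about EC25 of the complex) in HEPES buffer with 1% DMSO, read after overnight incubation at room temperature; EC50 from 4PL fitting.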
Structure (SMILES),"Percentage (%) bound of compound to 14-3-3σ, ERα 1h (14-3-3σ/ERα [1])","Percentage (%) bound of compound to 14-3-3σ, ERα 8h (14-3-3σ/ERα [1])","Percentage (%) bound of compound to 14-3-3σ, ERα 16h (14-3-3σ/ERα [1])","Percentage (%) bound of compound to 14-3-3σ, ERα 24h (14-3-3σ/ERα [1])","Percentage (%) bound of compound to 14-3-3σ, CRAF 1h (14-3-3σ/C-RAF [2])","Percentage (%) bound of compound to 14-3-3σ, CRAF 8h (14-3-3σ/C-RAF [2])","Percentage (%) bound of compound to 14-3-3σ, CRAF 24h (14-3-3σ/C-RAF [2]; 24h)","Percentage (%) bound of compound to 14-3-3σ, CRAF 24h (14-3-3σ/C-RAF [2]; head prints 24h)",X Fold stabilization (100 µM compound) of 14-3-3σ/ERα (14-3-3σ/ERα [3]),Kd (14-3-3σ/ERα [3]),"Percentage (%) bound of compound to 14-3-3σ, APO 1h (14-3-3σ)","Percentage (%) bound of compound to 14-3-3σ, APO 8h (14-3-3σ)","Percentage (%) bound of compound to 14-3-3σ, APO 16h (14-3-3σ)","Percentage (%) bound of compound to 14-3-3σ, APO 24h (14-3-3σ)",EC50 (14-3-3σ/C-RAF [4]),EC50 (14-3-3σ/ERα [5])
O=C(CCl)NC1CC2(CCN(C(=O)C3(Nc4ccc(Cl)cc4)CCOCC3)CC2)C1 [compound 166],32.6%,60.3%,87.6%,94.0%,1.8%,4.0%,23.3%,11.8%,13 fold,0.16 µM,1.2%,3.2%,5.5%,13.3%,77 ± 5 µM,6 ± 0.3 µM
O=C(CCl)N1CCC2(CC1)CCN(C(=O)C1(Nc3ccc(Cl)cc3)CCOCC1)CC2 [compound 170],38.2%,68.1%,86.2%,94.0%,3.6%,8.0%,19.7%,12.1%,12 fold,0.119 µM,1.0%,1.8%,3.4%,5.3%,58 ± 11 µM,8 ± 1 µM
CC1CC(Nc2ccc(Cl)cc2)(C(=O)NCC2CC3(CCN(C(=O)CCl)CC3)C2)CC(C)O1 (stereo not drawn) [compound 180],40.8%,50.1%,84.4%,96.1%,0%,2.5%,8.5%,4.5%,7 fold,0.192 µM,1.4%,2.9%,7.3%,11.5%,> 150 µM,10 ± 2 µM

# These reach a lower Kd (14-3-3σ/ERα [3]). Values come first.
"Percentage (%) bound of compound to 14-3-3σ, ERα 1h (14-3-3σ/ERα [1])","Percentage (%) bound of compound to 14-3-3σ, ERα 8h (14-3-3σ/ERα [1])","Percentage (%) bound of compound to 14-3-3σ, ERα 16h (14-3-3σ/ERα [1])","Percentage (%) bound of compound to 14-3-3σ, ERα 24h (14-3-3σ/ERα [1])","Percentage (%) bound of compound to 14-3-3σ, CRAF 1h (14-3-3σ/C-RAF [2])","Percentage (%) bound of compound to 14-3-3σ, CRAF 8h (14-3-3σ/C-RAF [2])","Percentage (%) bound of compound to 14-3-3σ, CRAF 24h (14-3-3σ/C-RAF [2]; 24h)","Percentage (%) bound of compound to 14-3-3σ, CRAF 24h (14-3-3σ/C-RAF [2]; head prints 24h)",X Fold stabilization (100 µM compound) of 14-3-3σ/ERα (14-3-3σ/ERα [3]),Kd (14-3-3σ/ERα [3]),"Percentage (%) bound of compound to 14-3-3σ, APO 1h (14-3-3σ)","Percentage (%) bound of compound to 14-3-3σ, APO 8h (14-3-3σ)","Percentage (%) bound of compound to 14-3-3σ, APO 16h (14-3-3σ)","Percentage (%) bound of compound to 14-3-3σ, APO 24h (14-3-3σ)",EC50 (14-3-3σ/C-RAF [4]),EC50 (14-3-3σ/ERα [5]),Structure (SMILES)
9.5%,19.6%,56.8%,85.2%,1.1%,2.9%,10.5%,7.4%,19 fold,0.077 µM,0%,0%,1.0%,2.0%,> 150 µM,2 ± 0.3 µM,O=C(CCl)NCC1CCN(C(=O)C2(Nc3ccc(Cl)cc3)CCOCC2)CC1 [compound 127]
7.6%,16.2%,37.7%,86.7%,0%,1.0%,23.3%,3.4%,55 fold,0.027 µM,0.6%,0.8%,14.2%,17.7%,,4 ± 0.4 µM,O=C(CCl)NCCCC1CCN(C(=O)C2(Nc3ccc(Cl)cc3)CCOCC2)CC1 [compound 149]
42.3%,80.4%,96.6%,99.8%,6.0%,13.4%,49.6%,27.1%,18 fold,0.077 µM,5.6%,11.2%,22.6%,40.5%,57 ± 5 µM,4 ± 1 µM,O=C(CCl)N1CCC2(CC1)CC(NC(=O)C1(Nc3ccc(Cl)cc3)CCOCC1)C2 [compound 163]
24.6%,36.8%,77.5%,96.4%,0%,0.5%,5.7%,2.0%,15 fold,0.094 µM,0.9%,1.7%,2.4%,2.5%,86 ± 11 µM,12 ± 1 µM,CC1CC(Nc2ccc(Cl)cc2)(C(=O)N2CCC(CNC(=O)CCl)CC2)CC(C)O1 (stereo not drawn) [compound 178]
